Patent US6548550B1, “Pharmaceutical compositions containing N-palmitoylethanolamide and use thereof in the veterinary field” (Innovet Italia S.r.l., priority 2002, dated 2003)
Read-outs that look alike come from different tables or passages of the source.

Key:
[1] = system: eosinophilic skin condition in cats; settings: for SIGNS plaque-granuloma-miliary scabs % improved / SIGNS plaque-granuloma-miliary scabs % unchanged / SIGNS plaque-granuloma-miliary scabs % worsened / SYMPTOMS pruritis-erythema-alopecia % improved / SYMPTOMS pruritis-erythema-alopecia % unchanged / SYMPTOMS pruritis-erythema-alopecia % worsened: cats
Method: Included in the investigation were 15 cats of European race with short hair, of which 9 were female and 6 were male, with ages of between 7 and 123 months. […] A numerical evaluation relating to the intensity and location of the signs and symptoms was assigned to each individual animal in accordance with the P.A.S.I. (psoriasis area severity index) “score” (Marks R. et al., 1989, Arch. Dermatol., 125:235-240). The improvements in the clinical signs and in the associated lesions were evaluated on the 15th and 30th days of treatment. The treatment consisted of a preparation in accordance with Example 3 of the pharmaceutical preparations given below, containing 120 mg of micronized N-palmitoylethanolamide. The active ingredient was administered in a proportion of 10 mg/kg/die for 30 days.

[2] = Particle size analysis of micronized PEA (Mastersizer); type: physicochemical
Method: The micronization of PEA and its co-micronization with excipients were performed with compressed-air turbine micronizing apparatus. This apparatus is known and is not therefore described in greater detail. The product obtained was subjected to analysis of the particles with Mastersizer, μ version apparatus from Malvern Instruments Co. UK.

Row | SMILES | side effects compared with cortisones ([1]; in vivo) | quantity % of particles <6μ ([2]; particle size <6μ) [%] | quantity % of particles <10μ ([2]; particle size <10μ) [% approx.] | quantity % of particles >14μ ([2]; particle size >14μ) | SIGNS plaque-granuloma-miliary scabs % improved ([1]; T15 (15th day of treatment)) [%] | SIGNS plaque-granuloma-miliary scabs % unchanged ([1]; T15 (15th day of treatment)) [%] | SIGNS plaque-granuloma-miliary scabs % worsened ([1]; T15 (15th day of treatment)) [%] | SYMPTOMS pruritis-erythema-alopecia % improved ([1]; T15 (15th day of treatment)) [%] | SYMPTOMS pruritis-erythema-alopecia % unchanged ([1]; T15 (15th day of treatment)) [%] | SYMPTOMS pruritis-erythema-alopecia % worsened ([1]; T15 (15th day of treatment)) [%] | SIGNS plaque-granuloma-miliary scabs % improved ([1]; T30 (30th day of treatment)) [%] | SIGNS plaque-granuloma-miliary scabs % unchanged ([1]; T30 (30th day of treatment)) [%] | SIGNS plaque-granuloma-miliary scabs % worsened ([1]; T30 (30th day of treatment)) [%] | SYMPTOMS pruritis-erythema-alopecia % improved ([1]; T30 (30th day of treatment)) [%] | SYMPTOMS pruritis-erythema-alopecia % unchanged ([1]; T30 (30th day of treatment)) [%] | SYMPTOMS pruritis-erythema-alopecia % worsened ([1]; T30 (30th day of treatment)) [%]
1 | CCCCCCCCCCCCCCCC(=O)NCCO [PEA, N-palmitoylethanolamide] | does not have the serious side effects typical of these drugs | 80 | ~96 | traces |  |  |  |  |  |  |  |  |  |  |  | 
2 | CCCCCCCCCCCCCCCC(=O)NCCO [non-micronized PEA, N-palmitoylethanolamide] |  |  |  |  | 14.6 | 85.4 | 0 | 8.2 | 91.8 | 0 | 51.4 | 48.6 | 0 | 52 | 48 | 0
